Measurements from patent publication US9415034B2, “Inhibitors and enhancers of uridine diphosphate-glucuronosyltransferase 2B (UGT2B)” (NATIONAL DEFENSE MEDICAL CENTER, priority 2005, dated 2016).

System: UGT2B
Assay: in vitro
Protocol: In the following experiment, 27 different kinds of CHEs and 10 different excipients were used as UGT2B inhibitor in this invention. These CHEs are pure compounds available commercially, and were purchased from Sigma Chemical Co., Nacalai Tesque (Kyoto, Japan) and Indofine Chemical Co., Inc. (Somerville, N.J.). These UGT2B inhibitors are dissolved in alcohol at the concentration of 1, 10, 100 μM for the following experiment.
These excipients are dissolved in water and make up to 0.5%, 5%, 50% (wt %, w/v) for the following experiment. (Note: BRIJ is a registered trademark of ICI Americas, Inc.; Pluronic is a registered trademark of BASF Corporation.)
The Sprague-Dawley male rats, weighted 300-400 g are used as model animals in these experiments. The microsome is prepared as follows: • i. Sacrifice a rat after 12-16 hours fasting, take its liver; wipe dry the liver and weigh it. • ii. Add 300% (by volume) of cold 0.3M sucrose solution, and homogenize the liver. • iii. Centrifuge the homogenized liver suspension at 9000×g speed (KS-800, Kubota, made in Japan) for 10 min at 4° C. Collect the supernatant. • iv. Centrifuge the supernatant at 105,000×g speed (L8-60M, Beckman, made in USA) for 60 min at 4° C. • v. Remove the supernatant, add 0.3M sucrose (of the same volume) and repeat the homogenization. The homogenized liver suspension is the microsome. Store the microsome at −70° C.
Thaw the microsome before use. Add 5 μl/ml BRIJ®35 (Fisher et al. 2000, Drug Metabolism & Disposition. 28(5):560-6) into microsome by a ratio of microsome:BRIJ®35=8:1 (v/v).
The protein amount is determined as follows: • i. Take 0.1 ml microsome and dilute to 5 ml 0.85% NaCl (50-fold dilution, v/v). Take 0.2 ml of the diluted microsome and place it in a capped test tube (triple experiments). Separately, replacing microsome with 0.2 ml NaCl as the control. • ii. Add 2.2 ml Biuret regent (SIGMA, 690-A) into each test tube, mix well and store at room temperature for 10 min. • iii. Add 0.1 ml folin regent (SIGMA, 690-A), mix immediately, and store at room temperature for 30 min. Measure the absorbance at 550 nm wave length within the 30 min. Measure the concentration of protein in microsome based on the standard curve generated by various bovine albumin concentration and absorbance. 4. The Measurement of the Inhibition of UGT2B Activity in vitro • i. […] Mix solution (A) and 17 μl solution (B) thoroughly, place in a 37° C. water bath and shake at 125 rpm for 60 min. • iii. Add 1 ml ACN to interrupt the reaction. • iv. Centrifuge at 130,000×g speed at 4° C. for 5 min, and • v. […] 5.
Set the Ultra-violet detector's (SPD-10A, Shimadzu, Kyoto, made in Japan) wave length to 210 nm.
Those CHEs are commercially available pure compounds, acquired from Sigma Chemical Co., Nacalai Tesque (Kyoto, Japan) and […] (Somerville, N.J.). Their categories, names, sources, and chemical compositions are described in Table 5.

[1] = Table 2, inhibitor 8.5 μM, metabolism of nalbuphine in rat liver microsome
[2] = Table 2, inhibitor 85 μM, metabolism of nalbuphine in rat liver microsome
[3] = Table 2, inhibitor 850 μM, metabolism of nalbuphine in rat liver microsome
[4] = male, Sprague-Dawley, rat, % Inhibition (Mean ± SD)
[5] = male, Sprague-Dawley, rat, inhibition rate on the metabolism of nalbuphine in microsome
[6] = Table 6, enhancer 8.5 μM, negative = enhancement
[7] = Table 6, enhancer 85 μM, negative = enhancement
[8] = Table 6, enhancer 850 μM, negative = enhancement
[9] = male, Sprague-Dawley, rat, liver microsomes, probe nalbuphine, % Inhibition (Mean ± SD), Table 6, enhancer 8.5 μM, negative = enhancement
[10] = male, Sprague-Dawley, rat, liver microsomes, probe nalbuphine, % Inhibition (Mean ± SD), Table 6, enhancer 85 μM, negative = enhancement
[11] = male, Sprague-Dawley, rat, liver microsomes, probe nalbuphine, % Inhibition (Mean ± SD), Table 6, enhancer 850 μM, negative = enhancement

SMILES	inhibition at 60 min, 8.5 μM [4]	inhibition at 60 min, 85 μM [4]	inhibition at 60 min, 8.5 µM [4]	inhibition at 60 min, 85 µM [4]	inhibition at 60 min, 850 µM [4]	inhibition at 60 min, 850 μM [4]	further results
Oc1cc(O)c2c(c1)OC(c1ccc(O)c(O)c1)[C@@H](O)C2 (single isomer, unassigned; (-)) [(−)-epicatechin, (−)-Epicatechin]							% Inhibition (Mean ± SD) (male, Sprague-Dawley, rat, 60 min, 8.5 μM): −28.68 ± 17.634%; % Inhibition (Mean ± SD) (male, Sprague-Dawley, rat, 60 min, 85 μM): −23.53 ± 27.304%; % Inhibition (Mean ± SD) (male, Sprague-Dawley, rat, 60 min, 850 μM): −48.35 ± 39.354%
O=C(O)[C@H]1O[C@@H](Oc2cc3oc(-c4ccccc4)cc(=O)c3c(O)c2O)[C@H](O)[C@@H](O)[C@@H]1O [baicalin]							% Inhibition (Mean ± SD) [1]: 36.298 ± 9.403%; % Inhibition (Mean ± SD) [2]: 46.253 ± 22.923%; % Inhibition (Mean ± SD) [3]: 44.262 ± 2.879%
O=c1cc(-c2ccccc2)oc2cc(O)c(O)c(O)c12 [baicalein]	-99.6 ± 12.8%	-125 ± 8.62%					inhibition at 60 min, 212.5 μM [4]: -146 ± 8.47%
O=c1cc(-c2ccccc2)oc2c1ccc1ccccc12 [α-naphthoflavone, α- Naphthoflavone]			72.3 ± 2.81%	97.8 ± 4.37%	90.8 ± 7.17%		inhibition at 60 min [5]: ≥ 30%
O=c1cc(-c2ccc(O)cc2)oc2cc(O)c([C@@H]3O[C@H](CO)[C@@H](O)[C@H](O)[C@H]3O)c(O)c12 [isovitexin, Isovitexin]							% Inhibition (Mean ± SD) [1]: 29.821 ± 9.786%; % Inhibition (Mean ± SD) [2]: −5.528 ± 9.096%; % Inhibition (Mean ± SD) [3]: −12.377 ± 8.912%; % Inhibition (Mean ± SD) [6]: 29.821 ± 9.786%; % Inhibition (Mean ± SD) [7]: −5.528 ± 9.096%; % Inhibition (Mean ± SD) [8]: −12.377 ± 8.912%
O=c1c(-c2ccc(O)cc2)coc2cc(O[C@@H]3O[C@H](CO)[C@@H](O)[C@H](O)[C@H]3O)ccc12 [daidzin, Daidzin]							inhibition at 60 min, 8.5 μM (male, Sprague-Dawley, rat): -29.5 ± 22%; inhibition at 60 min, 85 μM (male, Sprague-Dawley, rat): -41.5 ± 17%; inhibition at 60 min, 850 μM (male, Sprague-Dawley, rat): -61 ± 21.1%
COc1c(O)cc(O)c2c(=O)cc(-c3ccccc3)oc12 [wogonin, Wogonin]	-129 ± 8.29%	-153 ± 6.49%				-136 ± 2.88%	
O=c1cc(-c2ccc(O)c(O)c2)oc2cc(O)cc(O)c12 [luteolin, Luteolin]	-25.5 ± 26.6%	-28.3 ± 15.2%				-17.6 ± 12.1%	
C[C@@H]1O[C@@H](Oc2c(-c3ccc(O)c(O)c3)oc3cc(O)cc(O)c3c2=O)[C@H](O)[C@H](O)[C@H]1O [quercitrin, Quercitrin]							% Inhibition (Mean ± SD) [6]: −81.27 ± 15.027%; % Inhibition (Mean ± SD) [7]: −83.60 ± 27.446%; % Inhibition (Mean ± SD) [8]: −55.57 ± 12.151%
COc1ccc([C@@H]2CC(=O)c3c(O)cc(O[C@@H]4O[C@H](CO[C@@H]5O[C@@H](C)[C@H](O)[C@@H](O)[C@H]5O)[C@@H](O)[C@H](O)[C@H]4O)cc3O2)cc1O [hesperidin, Hesperidin]	2.16 ± 2.73%	-32 ± 10.3%				-42 ± 4.25%	
COc1ccc(C2CC(=O)c3c(O)cc(O)cc3O2)cc1O (centres unmarked) [hesperetin, Hesperetin]	51.7 ± 21.7%	-59.1 ± 18.9%	51.7 ± 21.7%	-59.1 ± 18.9%	-124 ± 49.4%	-124 ± 49.4%	inhibition at 60 min [5]: ≥ 30%
CC(=O)OCCCc1ccccc1 [3-phenylpropyl acetate, 3-Phenylpropyl Acetate]	-26.3 ± 27.3%	17.3 ± 5.84%	-26.3 ± 27.3%	17.3 ± 5.84%	2.39 ± 22.5%	2.39 ± 22.5%	
CC(C)[C@@H](C)/C=C/[C@@H](C)[C@H]1CC[C@H]2C3=CC=C4C[C@@H](O)CC[C@]4(C)[C@H]3CC[C@]12C [ergosterol, Ergosterol]							inhibition at 60 min, 8.5 μM [9]: -12.5 ± 28.9%; inhibition at 60 min, 85 μM [10]: -28.3 ± 20.3%; inhibition at 60 min, 850 μM [11]: -34.6 ± 19.9%
C[C@@H]1O[C@@H](O[C@H]2[C@H](Oc3cc(O)c4c(c3)O[C@H](c3ccc(O)cc3)CC4=O)O[C@H](CO)[C@@H](O)[C@@H]2O)[C@H](O)[C@H](O)[C@H]1O [narigin, Narigin]							% Inhibition (Mean ± SD) [6]: −124.10 ± 16.541%; % Inhibition (Mean ± SD) [7]: −80.70 ± 4.927%; % Inhibition (Mean ± SD) [8]: −98.15 ± 5.276%
CC1(C)[C@@H](O[C@H]2O[C@H](C(=O)O)[C@@H](O)[C@H](O)[C@H]2O[C@@H]2O[C@H](C(=O)O)[C@@H](O)[C@H](O)[C@H]2O)CC[C@]2(C)[C@H]3C(=O)C=C4[C@@H]5C[C@@](C)(C(=O)O)CC[C@]5(C)CC[C@@]4(C)[C@]3(C)CC[C@@H]12 [glycyrrhizin, Glycyrrhizin]	9.93 ± 6.66%	-20.3 ± 3.67%	9.93 ± 6.66%	-20.3 ± 3.67%	-5.65 ± 6.62%	-5.65 ± 6.62%	
O=c1cc(-c2ccccc2)oc2ccc3ccccc3c12 [β-naphthoflavone, β- Naphthoflavone]			95.8 ± 5.46%	86 ± 16.5%	99.7 ± 15.9%		inhibition at 60 min [5]: ≥ 30%
O=c1c(O[C@@H]2O[C@H](CO)[C@@H](O)[C@H](O)[C@H]2O)c(-c2ccc(O)c(O)c2)oc2cc(O)cc(O)c12 [isoquercitrin, Isoquercitrin]							% Inhibition (Mean ± SD) [6]: −8.089 ± 2.404%; % Inhibition (Mean ± SD) [7]: −19.119 ± 21.887%; % Inhibition (Mean ± SD) [8]: −71.696 ± 20.468%
O=c1c(-c2ccc(O)cc2)coc2c([C@@H]3O[C@H](CO)[C@@H](O)[C@H](O)[C@H]3O)c(O)ccc12 [puerarin, Puerarin]			3.92 ± 5.61%	18.3 ± 7.68%	10.1 ± 5.84%		
CC1(C)CC[C@]2(C(=O)O)CC[C@]3(C)C(=CC[C@@H]4[C@@]5(C)CC[C@H](O)C(C)(C)[C@@H]5CC[C@]43C)[C@@H]2C1 [oleanolic acid, Oleanolic Acid]							inhibition at 60 min, 8.5 μM [9]: -87.2 ± 24.4%; inhibition at 60 min, 85 μM [10]: -136 ± 15.2%; inhibition at 60 min, 850 μM [11]: -129 ± 22.1%
O=c1cc(-c2ccc(O)c(O)c2)oc2cc(O)c([C@@H]3O[C@H](CO)[C@@H](O)[C@H](O)[C@H]3O)c(O)c12 [homoorientin, Homoorientin]							% Inhibition (Mean ± SD) [6]: −128.53 ± 27.613%; % Inhibition (Mean ± SD) [7]: −127.21 ± 28.005%; % Inhibition (Mean ± SD) [8]: −133.17 ± 26.968%
C[C@H](Cc1ccc(O)c(O)c1)[C@@H](C)Cc1ccc(O)c(O)c1 [nordihydroguaiaretic acid]	-142 ± 41%	-165 ± 23%				-188 ± 16.6%	inhibition at 60 min (male, Sprague-Dawley, rat, rate of inhibition (enhancement of the metabolism of nalbuphine in liver microsome)): -188%
O=c1cc(-c2ccc(O)c(O)c2)oc2cc(O[C@@H]3O[C@H](CO)[C@@H](O)[C@H](O)[C@H]3O)cc(O)c12 [luteolin-7-glucoside, Luteolin-7-Glucoside]							% Inhibition (Mean ± SD) [6]: −45.053 ± 3.583%; % Inhibition (Mean ± SD) [7]: −36.109 ± 9.203%; % Inhibition (Mean ± SD) [8]: −47.869 ± 26.599%
O=c1c(O)c(-c2ccc(O)cc2)oc2cc(O)cc(O)c12 [kaempferol, Kaempferol]	-19.5 ± 14.2%	-76 ± 27.3%				-71.1 ± 4.51%	
O=C(O)c1ccc(O)c(O)c1 [protocatechuic acid, Protocatechuic acid]	-20.2 ± 5.96%	-4.56 ± 3.37%	-20.2 ± 5.96%	-4.56 ± 3.37%	9.84 ± 1.87%	9.84 ± 1.87%	
O=C(O)c1cc(O)c(O)c(O)c1 [gallic acid, Gallic Acid]			15.8 ± 4.42%	8.05 ± 3.02%	12.2 ± 4.08%		
C=CC(=C)CCC=C(C)C [β-myrcene, β-Myrcene]			16.8 ± 1.72%	35.29 ± 0.22%	34.9 ± 7.3%		inhibition at 60 min [5]: ≥ 30%
